pIC50: −log10 of the molar value.
Key:
Format in all cases: biochemical
[1] = target: T1, GASC1 (KDM4C, JMJD2C) (Homo sapiens, UniProt Q9H3R0); test: Histone lysine demethylase AlphaLISA assay, GASC1; details: substrate BK9M3
T1 construct: 1-349; host or cells: E. coli
T1 sequence (Q9H3R0 1-349): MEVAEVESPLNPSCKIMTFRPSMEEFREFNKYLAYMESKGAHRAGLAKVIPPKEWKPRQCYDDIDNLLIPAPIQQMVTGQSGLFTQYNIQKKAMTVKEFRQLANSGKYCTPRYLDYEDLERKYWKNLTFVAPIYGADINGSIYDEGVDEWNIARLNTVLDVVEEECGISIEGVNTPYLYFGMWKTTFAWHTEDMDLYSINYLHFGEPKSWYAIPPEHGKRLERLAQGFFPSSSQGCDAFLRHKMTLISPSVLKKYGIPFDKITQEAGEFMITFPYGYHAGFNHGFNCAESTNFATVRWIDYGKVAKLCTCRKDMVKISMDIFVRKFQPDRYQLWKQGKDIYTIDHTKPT
Experimental: (§1) Example 2: Histone Lysine Demethylase AlphaLISA Assays for IC50 Value Determination
(§2) Assays are performed analogously to the protocol described by Perkin Elmer (Roy et al. Perkin Elmer Technical Note: AlphaLISA #12, April 2011).
(§3) Enzymes are dissolved in enzyme buffer and incubated for 10 min before 5 μL is added to 5 μL 3% DMSO solutions of compounds in enzyme buffer. Incubated for another 10 minutes, before 5 μL substrate solution is added and the reaction mixture is incubated at room temperature for the given period. 10 μL acceptor beads, suspended at given dilutions in Epigenetic Buffer (Perkin Elmer AL008) from stock, are added and the suspension is incubated 60 minutes in the dark at room temperature, before 10 μL suspension (at the given dilutions in Epigenetic Buffer) of streptavidin donor beads (Perkin Elmer 6760002) in Epigenetic Buffer is added. After incubation at room temperature in the dark the plates are read. Reaction conditions are seen in Table 2b.

[2] = target: T2, UTX (KDM6A) (Homo sapiens, UniProt O15550); test: Histone lysine demethylase AlphaLISA assay, UTX; details: substrate BK27M3
T2 construct: 919-1401; host or cells: E. coli
T2 sequence (O15550 919-1401): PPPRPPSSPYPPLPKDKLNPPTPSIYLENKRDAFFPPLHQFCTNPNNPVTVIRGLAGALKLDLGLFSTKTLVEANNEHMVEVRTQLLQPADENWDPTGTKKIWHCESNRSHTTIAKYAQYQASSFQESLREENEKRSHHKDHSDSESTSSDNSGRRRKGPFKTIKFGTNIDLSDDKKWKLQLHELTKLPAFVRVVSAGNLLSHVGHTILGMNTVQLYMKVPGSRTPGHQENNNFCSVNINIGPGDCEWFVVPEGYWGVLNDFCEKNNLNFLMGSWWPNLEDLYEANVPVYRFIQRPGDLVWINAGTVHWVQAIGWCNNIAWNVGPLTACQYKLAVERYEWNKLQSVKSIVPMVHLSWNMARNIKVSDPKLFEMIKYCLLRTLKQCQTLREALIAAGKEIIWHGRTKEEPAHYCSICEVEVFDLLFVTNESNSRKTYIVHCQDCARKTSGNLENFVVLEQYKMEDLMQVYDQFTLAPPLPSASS
Experimental: as §1, §2, §3

[3] = target: T3, PLU1 (KDM5B) (Homo sapiens, UniProt Q9UGL1); test: Histone lysine demethylase AlphaLISA assay, PLU1; details: substrate H3K4M3B
T3 construct: 1-809; host or cells: E. coli
T3 sequence (Q9UGL1 1-809): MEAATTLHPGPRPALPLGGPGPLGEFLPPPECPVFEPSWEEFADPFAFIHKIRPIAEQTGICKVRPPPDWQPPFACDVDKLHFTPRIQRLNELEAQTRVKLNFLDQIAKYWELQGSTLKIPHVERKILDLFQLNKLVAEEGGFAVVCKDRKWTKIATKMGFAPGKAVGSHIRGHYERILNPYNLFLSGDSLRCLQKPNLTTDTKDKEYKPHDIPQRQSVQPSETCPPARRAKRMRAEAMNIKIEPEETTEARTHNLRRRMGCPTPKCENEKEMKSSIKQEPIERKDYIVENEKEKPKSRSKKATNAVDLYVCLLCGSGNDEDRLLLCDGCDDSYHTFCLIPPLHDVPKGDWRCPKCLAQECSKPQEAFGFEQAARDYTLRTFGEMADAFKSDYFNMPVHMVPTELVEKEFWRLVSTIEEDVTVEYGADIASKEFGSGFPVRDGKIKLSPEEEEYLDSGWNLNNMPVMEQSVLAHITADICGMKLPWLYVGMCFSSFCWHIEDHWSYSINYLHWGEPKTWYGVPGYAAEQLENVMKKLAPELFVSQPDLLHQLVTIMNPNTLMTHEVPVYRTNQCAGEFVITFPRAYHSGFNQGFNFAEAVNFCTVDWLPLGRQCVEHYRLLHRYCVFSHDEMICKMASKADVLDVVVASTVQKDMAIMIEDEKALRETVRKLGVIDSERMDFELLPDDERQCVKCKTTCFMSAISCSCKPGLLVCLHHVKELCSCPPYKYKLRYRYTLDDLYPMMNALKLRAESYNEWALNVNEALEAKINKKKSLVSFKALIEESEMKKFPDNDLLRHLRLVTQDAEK
Experimental: as §1, §2, §3

Compound	pIC50 [1]	pIC50 [2]	pIC50 [3]
CC(C)CCNCc1cc(C(=O)O)ccn1 [#22, 2-{[(3-methylbutyl)amino]methyl}pyridine-4-carboxylic acid]	6.00 to 7.00	≤ 6.00	6.00 to 7.00
O=C(O)c1ccnc(CNCC(=O)N2CCCC2Cc2ccccc2)c1 (stereo not drawn) [#43, 2-({[2-(2-benzylpyrrolidin-1-yl)-2-oxoethyl]amino}methyl)pyridine-4-carboxylic acid]	> 7.00	≤ 6.00	> 7.00
CCOC(=O)c1ccccc1OC(=O)c1ccnc(CNCCCCN(CC)CC)c1 [#52, 2-(ethoxycarbonyl)phenyl 2-({[4-(diethylamino)butyl]amino}methyl)pyridine-4-carboxylate]	6.00 to 7.00	≤ 6.00	> 7.00
CCN(CC)CCCCNCc1cc(C(=O)OCCN(C)C)ccn1 [#53, 2-(dimethylamino)ethyl 2-({[4-(diethylamino)butyl]amino}methyl)pyridine-4-carboxylate]	> 7.00	≤ 6.00	> 7.00
CCN(CC)CCCCNCc1cc(C(=O)OCCCN(C)C)ccn1 [#54, 3-(dimethylamino)propyl 2-({[4-(diethylamino)butyl]amino}methyl)pyridine-4-carboxylate]	6.00 to 7.00	≤ 6.00	> 7.00
CCN(CC)CCCCNCc1cc(C(=O)Oc2c(OC)cccc2OC)ccn1 [#56, 2,6-dimethoxyphenyl 2-({[4-(diethylamino)butyl]amino}methyl)pyridine-4-carboxylate]	6.00 to 7.00	≤ 6.00	> 7.00
CCN(CC)CCCCNCc1cc(C(=O)Oc2c(C)cccc2C)ccn1 [#57, 2,6-dimethylphenyl 2-({[4-(diethylamino)butyl]amino}methyl)pyridine-4-carboxylate]	≤ 6.00	≤ 6.00	> 7.00
CCN(CCN(C)C)C(=O)CNCc1cc(C(=O)Oc2ccc(OC)cc2)ccn1 [#58, 4-methoxyphenyl 2-{[({[2-(dimethylamino)ethyl](ethyl)carbamoyl}methyl)amino]methyl}pyridine-4-carboxylate]	6.00 to 7.00	≤ 6.00	> 7.00
CCOC(=O)c1ccccc1OC(=O)c1ccnc(CNCC(=O)N(CC)CCN(C)C)c1 [#59, 2-(ethoxycarbonyl)phenyl 2-{[({[2-(dimethylamino)ethyl](ethyl)carbamoyl}methyl)amino]methyl}pyridine-4-carboxylate]	> 7.00	> 7.00	> 7.00
CCOC(=O)N(C)c1ccc(COC(=O)c2ccnc(CNCCCCN(CC)CC)c2)cc1 [#60, {4-[(ethoxycarbonyl)(methyl)amino]phenyl}methyl 2-({[4-(diethylamino)butyl]amino}methyl)pyridine-4-carboxylate]	≤ 6.00	> 7.00	> 7.00
CCN(CCN(C)C)C(=O)CNCc1cc(C(=O)OC(C)CCN(C)C(=O)C(F)(F)F)ccn1 (stereo not drawn) [#64, 4-(2,2,2-trifluoro-N-methylacetamido)butan-2-yl 2-{[({[2-(dimethylamino)ethyl](ethyl)carbamoyl}methyl)amino]methyl}pyridine-4-carboxylate]	> 7.00	≤ 6.00	6.00 to 7.00

Now from value to molecule:

pIC50 [1]	pIC50 [2]	pIC50 [3]	Compound
> 7.00	≤ 6.00	> 7.00	CN(CCC(N)=O)C(=O)CNCc1cc(C(=O)O)ccn1 [#23, 2-[({[(2-carbamoylethyl)(methyl)carbamoyl]methyl}amino)methyl]pyridine-4-carboxylic acid]
> 7.00	≤ 6.00	> 7.00	O=C(O)c1ccnc(CNCC(=O)N2CCCCC2CO)c1 (stereo not drawn) [#24, 2-[({2-[2-(hydroxymethyl)piperidin-1-yl]-2-oxoethyl}amino)methyl]pyridine-4-carboxylic acid]
> 7.00	≤ 6.00	> 7.00	CN(CCCc1nccn1C)C(=O)CNCc1cc(C(=O)O)ccn1 [#25, 2-{[({methyl[3-(1-methyl-1H-imidazol-2-yl)propyl]carbamoyl}methyl)amino]methyl}pyridine-4-carboxylic acid]
> 7.00	≤ 6.00	> 7.00	CCN1CCCC1CNC(=O)CNCc1cc(C(=O)O)ccn1 (stereo not drawn) [#26, 2-{[({[(1-ethylpyrrolidin-2-yl)methyl]carbamoyl}methyl)amino]methyl}pyridine-4-carboxylic acid]
> 7.00	≤ 6.00	> 7.00	CN(Cc1ccnn1C)C(=O)CNCc1cc(C(=O)O)ccn1 [#27, 2-{[({methyl[(1-methyl-1H-pyrazol-5-yl)methyl]carbamoyl}methyl)amino]methyl}pyridine-4-carboxylic acid]
> 7.00	≤ 6.00	> 7.00	O=C(CNCc1cc(C(=O)O)ccn1)NC1CCN(CCCc2ccccc2)CC1 [#30, 2-{[({[1-(3-phenylpropyl)piperidin-4-yl]carbamoyl}methyl)amino]methyl}pyridine-4-carboxylic acid]
> 7.00	6.00 to 7.00	> 7.00	O=C(CNCc1cc(C(=O)O)ccn1)NC1CCN(Cc2ccco2)CC1 [#31, 2-{[({[1-(furan-2-ylmethyl)piperidin-4-yl]carbamoyl}methyl)amino]methyl}pyridine-4-carboxylic acid]
> 7.00	≤ 6.00	> 7.00	O=C(CNCc1cc(C(=O)O)ccn1)NC1CCN(Cc2ccc(-c3ccccc3)o2)CC1 [#32, 2-({[({1-[(5-phenylfuran-2-yl)methyl]piperidin-4-yl}carbamoyl)methyl]amino}methyl)pyridine-4-carboxylic acid]
> 7.00	≤ 6.00	> 7.00	CCN(CCC#N)C(=O)CNCc1cc(C(=O)O)ccn1 [#33, 2-[({[(2-cyanoethyl)(ethyl)carbamoyl]methyl}amino)methyl]pyridine-4-carboxylic acid]
> 7.00	≤ 6.00	> 7.00	CN(CCCNCc1cc(C(=O)O)ccn1)Cc1ccccc1F [#36, 2-{[(3-{[(2-fluorophenyl)methyl](methyl)amino}propyl)amino]methyl}pyridine-4-carboxylic acid]
> 7.00	≤ 6.00	> 7.00	O=C(O)c1ccnc(CNCC(=O)N2CCCC(Cc3nc4ccccc4[nH]3)C2)c1 (stereo not drawn) [#38, 2-[({2-[3-(1H-1,3-benzodiazol-2-ylmethyl)piperidin-1-yl]-2-oxoethyl}amino)methyl]pyridine-4-carboxylic acid]
> 7.00	≤ 6.00	> 7.00	O=C(CNCc1cc(C(=O)O)ccn1)NC1CCN(CCc2ccccc2)C1 (stereo not drawn) [#39, 2-{[({[1-(2-phenylethyl)pyrrolidin-3-yl]carbamoyl}methyl)amino]methyl}pyridine-4-carboxylic acid]
> 7.00	≤ 6.00	> 7.00	O=C(O)c1ccnc(CNCCCN2CCC(Cc3ccccc3)CC2)c1 [#40, 2-({[3-(4-benzylpiperidin-1-yl)propyl]amino}methyl)pyridine-4-carboxylic acid]
> 7.00	≤ 6.00	> 7.00	O=C(O)c1ccnc(CNCCCNCCOc2ccccc2)c1 [#41, 2-[({3-[(2-phenoxyethyl)amino)propyl}amino)methyl]pyridine-4-carboxylic acid]
> 7.00	6.00 to 7.00	> 7.00	CN1CCN(Cc2ccc(CN(C)C(=O)CNCc3cc(C(=O)O)ccn3)cc2)CC1 [#42, 2-[({[methyl({4-[(4-methylpiperazin-1-yl)methyl]phenyl}methyl)carbamoyl]methyl}amino)methyl]pyridine-4-carboxylic acid]

Source: patent US10221139B2, “Inhibitors of histone demethylases” (Gilead Sciences, Inc., priority 2012, dated 2019)
